Like-named read-outs stand apart in the source and are kept apart here.
Experiments:
Escherichia coli K12 = test: Antimicrobial activity, microdilution MIC, E. coli; assay type: cell-based; conditions: for MIC: Escherichia coli, K12, 24 h
Protocol: (§1) The antimicrobial potential of the tested agents was evaluated against two reference strains of bacteria: Staphylococcus aureus ATCC 25923 and Escherichia coli K12, two reference strains of pathogenic yeasts, Candida albicans ATCC10231 and Candida glabrata DSMZ11226, as well as 20 strains of clinical isolates of S. aureus collected from patients with skin and soft tissue infections (n = 8) and strains derived from subclinical bovine mastitis milk samples (n = 12). Four of these strains, two isolated from human infections and two isolated from bovine mastitis, were classified as MRSA (Methicillin-resistant Staphylococcus aureus). All of them were mecA positive and their methicillin resistance was confirmed with the disc diffusion assay. The remaining 16 strains were MSSA (Methicillin-sensitive Staphylococcus aureus). The assays were performed using a serial, two-fold dilution method in 96-well microtiter plates under conditions recommended by the Clinical and Laboratory Standards Institute (CLSI, Pittsburgh, PA, USA). The aim of this procedure was the determination of the MIC parameter (Minimum Inhibitory Concentration)—the minimum concentration of a tested agent capable to inhibit the growth of a specified strain of microorganism. The agents were solubilized in deionized, sterile water to a final concentration of […]. Subsequently, solutions were mixed (1:1 (v/v)) with 2 × concentrated liquid medium, Mueller-Hinton Broth 2—cation adjusted (MHB2) for evaluation of antibacterial activity and RPMI in the case of evaluation of the antifungal activity. […] Subsequently, the solutions were mixed with MHB2 or RPMI medium to get the final concentration of 8.192 mg/mL (8192 µg/mL). In the next step, the serial, two-fold dilutions of the tested agents (over the range of concentrations from 8192 to 8 µg/mL for reference strains of bacteria and yeasts and from 512 to 1.0 µg/mL for clinical isolates of S. aureus) were prepared in 96-well microtitration plates in the final volume of 100 μL of the appropriate medium.
(§2) The pure bacterial cultures of (both the reference and clinical strains) were grown on the Mueller-Hinton Agar (MHA) for 18–24 h at 37 °C. A small amount of the biomass of the culture of each strain of microorganisms was suspended in the sterile PBS (phosphate buffered saline, pH 7.4 at 25 °C, purchased from Sigma) solution to get an optical density OD600 = 0.13 (equal to the cells concentration approximately 1 × 10^8 CFU/mL). The obtained suspensions of the cells were next diluted 1:100 (v/v) in the MHB2 medium. One hundred µL of the cells’ suspension was finally loaded into the wells of plates prepared in advance, which contained 100 µL of two-fold dilutions of the tested agents (the final concentration of the bacterial cells in all wells was approximately 5 × 10^5 CFU/mL).
(§3) The pure cultures of yeast strains were grown on the Sabouraud Dextrose Agar (SDA) for 18–24 h at 37 °C. Suspensions of the microorganisms were prepared by taking one loop of pure culture into sterile water and adjusting optical density to 0.1 at 660 nm and further 50-fold dilution in RPMI 1640 medium resulting in cells concentration of approximate 2 × 10^4 CFU/mL. One hundred μL of that suspension was inoculated to the wells of the microtitration plate containing appropriate dilutions of the agents. The positive growth control of each strain (both bacteria and yeasts) was performed in the wells without the tested substances. The negative control containing only the media was included in each assay. Microtiter plates were incubated at 37 °C for 24 h. Following the incubation period, determination of the MIC values of the tested agents was carried out by measuring the absorbance at 531 nm using a Victor^3 microplate reader (Perkin Elmer, Inc., Waltham, MA, USA). The lowest concentration of the agent causing inhibition of growth equal to or higher than 90% (MIC90) of growth control was taken as the MIC value. Each test was repeated three times. […]

[1] = tested on: Staphylococcus aureus ATCC 25923; test: Antimicrobial activity, microdilution MIC, S. aureus reference strain; assay type: cell-based; conditions: for MIC: Staphylococcus aureus, ATCC25923, 24 h
Protocol: as §1, §2, §3

[2] = tested on: Candida glabrata DSMZ 11226; test: Antimicrobial activity, microdilution MIC, C. glabrata; assay type: cell-based; conditions: for MIC: Nakaseomyces glabratus, DSMZ11226, 24 h
Protocol: as §1
(§4) The pure cultures of yeast strains were grown on the Sabouraud Dextrose Agar (SDA) for 18–24 h at 37 °C. Suspensions of the microorganisms were prepared by taking one loop of pure culture into sterile water and adjusting optical density to 0.1 at 660 nm and further 50-fold dilution in RPMI 1640 medium resulting in cells concentration of approximate 2 × 10^4 CFU/mL. One hundred μL of that suspension was inoculated to the wells of the microtitration plate containing appropriate dilutions of the agents. The positive growth control of each strain (both bacteria and yeasts) was performed in the wells without the tested substances. The negative control containing only the media was included in each assay. Microtiter plates were incubated at 37 °C for 24 h. Following the incubation period, determination of the MIC values of the tested agents was carried out by measuring the absorbance at 531 nm using a Victor^3 microplate reader (Perkin Elmer, Inc., Waltham, MA, USA). The lowest concentration of the agent causing inhibition of growth equal to or higher than 90% (MIC90) of growth control was taken as the MIC value. Each test was repeated three times.

[3] = tested on: human keratinocytes (HaCaT cell line); test: Cytotoxicity, MTT assay; assay type: cell-based; conditions: Homo sapiens, HaCaT, read-out: HaCaT IC50
Protocol: To assess the cytotoxicity of QAS (IC50), the MTT assay on 96-well polystyrene plates was performed for human keratinocytes (HaCaT, Elabscience Biotechnology Inc., Houston, Texas, USA). The assay utilizes colorimetric determination of the cell metabolic activity and the color intensity reflects the number of live cells that can be measured spectrophotometrically. The cell line was cultured in a Dulbecco’s modified Eagle Medium (Invitrogen) supplemented with 10% fetal bovine serum (Sigma Aldrich) (v/v), 100 units/mL of penicillin, 100 μg/mL of streptomycin, and 2 mM L-glutamine and was stored at 37 °C in a humidified 5% CO2 incubator. Briefly, a day after plating of 500 cells per well, a series of concentrations (0.5–200 μg/mL) of the test compounds was applied. DMSO was added to the control cells at a final concentration of 1.0% (v/v), which was related to the maximal concentration of the solvent compounds used in the experiment. After 24 h of incubation with the QAS at 37 °C (humidified 5% CO2 incubator), a medium containing 1 mg/mL of MTT (3-(4,5-dimethylthiazol-2-yl)-2,5-diphenyltetrazolium bromide) was added to the wells up to a final concentration of 0.5 mg/mL. Subsequently, the plates were incubated at 37 °C for 4 h. Then, the medium was removed by suction, and the formazan product was solubilized with DMSO. The background absorbance at 630 nm was subtracted from that at 570 nm for each well (Epoch, BioTek Instruments, Winooski, VT, USA). Six replicates were conducted for each concentration. All experiments were repeated at least twice and the resulting IC50 values were calculated with GraFit 7 software (v. 7.0, Erithacus, Berkley, CA, USA).

[4] = tested on: Candida albicans ATCC 10231; test: Antimicrobial activity, microdilution MIC, C. albicans; assay type: cell-based; conditions: for MIC: Candida albicans, ATCC10231, 24 h
Protocol: as §1, §4

[5] = tested on: Salmonella typhimurium TA98 strain; conditions: TA98, no metabolic activation
Protocol: A Salmonella mutagenicity test was performed with Salmonella typhimurium TA98 strain (Xenometrics AG, Allschwil, Switzerland) without metabolic activation, following the procedure by Mortelmans and Zeiger [52], with modifications reported Golunski et al. [53] […] Subsequently, the mixture was centrifuged, bacterial pellet washed with 0.75% NaCl and resuspended in 300 µL of 0.75% NaCl solution containing 0.1 µmol each of histidine and biotin, and it was then spread on a glucose minimal (GM) plate. […] All experiments were performed in triplicate. The anticancer drug doxorubicin at 90 ng/plate with known mutagenic effect towards S. typhimurium TA98 was used as a positive control.

[6] = MIC90, 24 h, MHB2, read-out: MIC E. coli K12
[7] = MIC90, 24 h, MHB2, read-out: MIC S. aureus ATCC 25923
[8] = MIC90, 24 h, RPMI, read-out: MIC C. glabrata DSMZ 11226
[9] = MIC90, 24 h, RPMI, read-out: MIC C. albicans ATCC 10231

SMILES | MIC (Escherichia coli K12; [6]) [µg/mL] | MIC E. coli K12 (Escherichia coli K12; MIC90, 24 h, MHB2) [µg/mL] | MIC S. aureus ATCC 25923 ([1]; MIC90, 24 h, MHB2) [µg/mL] | MIC [1, 7] [µg/mL] | MIC C. glabrata DSMZ 11226 ([2]; MIC90, 24 h, RPMI) [µg/mL] | MIC [2, 8] [µg/mL] | IC50 ([3]; MTT, 24 h incubation) [µg/mL] | MIC [4, 9] [µg/mL] | MIC C. albicans ATCC 10231 ([4]; MIC90, 24 h, RPMI) [µg/mL] | Number of Revertants ([5]; concentration 4 µg/plate) | Number of Revertants ([5]; concentration 20 µg/plate) | Number of Revertants ([5]; concentration 100 µg/plate) | Number of Revertants ([5]; concentration 500 µg/plate) | Number of Revertants ([5]; concentration 2000 µg/plate) | MIC (Escherichia coli K12; read-out: MIC E. coli K12, MIC90, 24 h, MHB2) [µg/mL] | MIC ([1]; read-out: MIC S. aureus ATCC 25923, MIC90, 24 h, MHB2) [µg/mL] | MIC ([2]; read-out: MIC C. glabrata DSMZ 11226, MIC90, 24 h, RPMI) [µg/mL] | IC50 ([3]; 24 h) [µg/mL] | MIC ([4]; read-out: MIC C. albicans ATCC 10231, MIC90, 24 h, RPMI) [µg/mL]
c1cc[n+](C2COC3C2OCC3[n+]2ccccc2)cc1 (stereo not shown) [QAS 3] | > 4000 | >4096 | >4096 | > 4000 | >4096 | > 4000 | > 100 | > 4000 | >4096 | 7.3 ± 2.5 | 11.0 ± 1.0 | 10.6 ± 2.1 | 8.7 ± 1.5 | 7.3 ± 2.5 |  |  |  |  | 
CN(C)c1cc[n+](C2COC3C2OCC3[n+]2ccc(N(C)C)cc2)cc1 (stereo not shown) [QAS 4] | > 4000 | >4096 | >4096 | > 4000 | >4096 | > 4000 | > 100 | > 4000 | >4096 | 8.3 ± 0.6 | 9.7 ± 1.5 | 10.0 ± 2.6 | 7.0 ± 3.5 | 6.0 ± 2.6 |  |  |  |  | 
NC(=O)c1ccc[n+](C2COC3C2OCC3[n+]2cccc(C(N)=O)c2)c1 [QAS 5, N,N’-(1,4:3,6-Dianhydro-2,5-dideoxy-L-iditol-2,5-diyl)-bis[(3-carboxamide)pyridinium] Ditrifluoromethanesulfonate] | > 4000 | >4096 | >4096 | > 4000 | >4096 | > 4000 | > 100 | > 4000 | >4096 | 14.3 ± 5.5 | 8.0 ± 3.5 | 12.0 ± 2.0 | 12.7 ± 2.5 | 11.0 ± 1.7 |  |  |  |  | 
Cn1cc[n+](C2COC3C2OCC3[n+]2ccn(C)c2)c1 [QAS 6, N,N’-(1,4:3,6-Dianhydro-2,5-dideoxy-L-iditol-2,5-diyl)-bis(N-methylimidazolium) Ditrifluoromethanesulfonate] | > 4000 | >4096 | >4096 | > 4000 | >4096 | > 4000 | > 100 | > 4000 | >4096 | 13.3 ± 3.2 | 10.0 ± 2.0 | 9.0 ± 3.6 | 16.0 ± 6.2 | 13.7 ± 2.9 |  |  |  |  | 
C[N+](C)(C)C1COC2C1OCC2[N+](C)(C)C (stereo not shown) [QAS 7] |  | >4096 | >4096 |  | >4096 |  |  |  | >4096 | 11.0 ± 3.0 | 10.7 ± 4.9 | 11.3 ± 3.5 | 13.7 ± 1.5 | 11.3 ± 3.2 | > 4000 | > 4000 | > 4000 | > 100 | > 4000
